Earlier results in US10779570B2, “Aerosol from tobacco” (PHILIP MORRIS PRODUCTS S.A., priority 2013, dated 2020).

Conditions: biomarker of exposure in urine

Compound	Biomarker t1/2β
CC(=O)N[C@@H](CSC(C)CCO)C(=O)O (stereo partly drawn) [3-Hydroxy-1-methylpropyl-mercapturic acid]	48 h

Same assay, conditions: biomarker of exposure in urine, plasma or blood

Compound	Biomarker t1/2β
S-benzyl-mercapturic acid	9 h
CC(=O)N[C@@H](CSCCC#N)C(=O)O [2-Cyanoethylmercapturic acid]	17 h
CC(=O)N[C@@H](CSCCCO)C(=O)O [3-Hydroxypropyl-mercapturic acid]	10 h
O=NN1CCC[C@H]1c1cccnc1 [NNN, N-nitrosonornicotine]	15 h
Nc1ccc(-c2ccccc2)cc1 [4-Aminobiphenyl]	26 h
Nc1ccc2ccccc2c1 [2-Aminonaphthalene]	9 h
CC(=O)N[C@@H](CSCCO)C(=O)O [2-Hydroxyethyl-mercapturic acid]	5 h

Conditions: smoke constituent

Compound	Organ Class toxicity
C=CC=O [Acrolein]	RT, CT
C1CO1 [Ethylene Oxide]	CA, RT, RDT
[C-]#[O+] [Carbon monoxide]	RDT, CT
C=CC=C [1,3-Butadiene]	CA, RT, RDT
Cc1ccccc1 [Toluene]	RT, RDT
c1ccccc1 [Benzene]	CA, CT, RDT
C=CC#N [Acrylonitrile]	CA, RT
